Laboratory results: US20230141783A1, “DIFFERENT FORMS OF 6-CHLORO-2-ETHYL-N-(4-(4-(4-(TRIFLUOROMETHOXY)PHENYL)PIPERIDINE-1-YL)BENZYL)IMIDAZO[1,2-A]PYRIDINE-3-CARBOXAMIDE” (priority 2019, published 2023)
Where “and” joins values, the source holds several entries; their conditions need not be identical. Identical values can stand only once. Entries after “also recorded” stand apart in the source; their conditions may differ. Like-named read-outs stand apart in the source and are kept apart here.

Columns and labels:
[1] = Solubility estimation by aliquot addition and Clarity temperature cycling
[2] = Humidity stress of generated salts (75% relative humidity, 7 days, XRPD); assay type: physicochemical; conditions: test for deliquescence, sample stressed for several days under 75% RH
Method: Approximately 25 mg of generated salts of […] were added to vials and placed unsealed into a 75% relative humidity chamber (sealed cabinets with relative humidity conditions controlled by super-saturated salt solutions) at ambient temperature for 7 days prior to analysis by XRPD.

[3] = Exposing Forms A and C in 100% RH at RT (XRPD/DSC); assay type: physicochemical; conditions: 100% RH at RT for 6 days
Text: Forms A and C were exposed in 100% RH environment at RT for 6 days; the solids were subsequently analyzed using DSC and XRPD.
In FIGS. 1 and 17, the XRPD of sample of Form A (previous obtained form EA and IPA/MEK) before and after 6 days exposure to 100% RH are sketched. FIGS. 19 and 20 show the DSC scan of the same samples after exposure. […] FIGS. 18 and 21 show the result of the same treatment for Form C.

DVS water absorption = assay type: physicochemical; conditions: 90% RH at RT
Text: (FIGS. 4-5). It is the predominant form obtained in slurry experiments. Conversion from Form A to other XRPD patterns was mainly obtained from methanol (to Form C) or water (to pattern B) in the slurry medium. However, as it will be shown in further sections, Form C is converted to Form A upon re-slurry in the majority of other solvents (than methanol).
FIGS. 9 to 11 show XRPD, DSC, and TGA of a solid with Form C. […] The XRPD peaks of pattern C are sharper than those of Form A. Form C is the predominant form when methanol is used as the slurry medium. However, Form “C” is not a methanol solvate form of the di-tosylate salt. Many reactive crystallization experiments using different solvents generated Form C immediately after salt formation.

[4] = Long-term stability at 25° C./60% RH (HPLC); assay type: physicochemical; conditions: 25° C. and 60% RH for up to 60 months; ditosylate
[5] = Stability under accelerated conditions 40° C./75% RH (HPLC); assay type: physicochemical; conditions: 40° C. and 75% RH up to 6 months
[6] = pH 4.5 buffer, pull time 23 hrs
[7] = pH 6.8 buffer, pull time 22.5 hrs
[8] = pH 7.5 buffer, pull time 72 hrs

CCc1nc2ccc(Cl)cn2c1C(=O)NCc1ccc(N2CCC(c3ccc(OC(F)(F)F)cc3)CC2)cc1.O=P(O)(O)O [Phosphate salt, Type 37]
XRPD of solid isolated after pH solubility experiment (pH 1): T56 HCl salt v. disordered | HPLC concentration based on avg std (pH 1 buffer, pull time 24 hrs): 5.33 mg/mL and 5.64 mg/mL | XRPD of solid isolated after pH solubility experiment (pH 4.5): Type 28 disordered | HPLC concentration based on avg std [6]: 0.000384 mg/mL and 0.000336 mg/mL | XRPD of solid isolated after pH solubility experiment (pH 6.8): Type 28 disordered | HPLC concentration based on avg std [7]: 0.00028 mg/mL and 0.000297 mg/mL | XRPD of solid isolated after pH solubility experiment (pH 7.5): Type 28 disordered | HPLC concentration based on avg std [8]: 6.39e-05 mg/mL and 4.1e-05 mg/mL

CCc1nc2ccc(Cl)cn2c1C(=O)NCc1ccc(N2CCC(c3ccc(OC(F)(F)F)cc3)CC2)cc1.Cl [Type 36]
solid form after slurrying in buffer (XRPD) (all buffers tested (pH 1, 4.5, 6.8, 7.5), listed as Type 36 HCl salt): converted to new type HCl salt Type 56

CCc1nc2ccc(Cl)cn2c1C(=O)NCc1ccc(N2CCC(c3ccc(OC(F)(F)F)cc3)CC2)cc1.Cc1ccc(S(=O)(=O)O)cc1.Cc1ccc(S(=O)(=O)O)cc1 [Ditosylate]
HPLC concentration based on avg std (pH 1, client result): 1.45 (client result) mg/ml

CCc1nc2ccc(Cl)cn2c1C(=O)NCc1ccc(N2CCC(c3ccc(OC(F)(F)F)cc3)CC2)cc1.Cl [HCl salt, 6-chloro-2-ethyl-N-(4-(4-(4-(trifluoromethoxy)phenyl)piperidine-1-yl)benzyl)imidazo[1,2-a]pyridine-3-carboxamide mono-hydrochloride]
solid form after slurrying in buffer (XRPD) (all buffers tested (pH 1, 4.5, 6.8, 7.5), listed as HCl, mono-hydrochloride): Type 56 | solid form after slurrying in buffer (XRPD) (all buffers tested (pH 1, 4.5, 6.8, 7.5), mono-hydrochloride): no conversion to the free base was observed | solubility in comparison to the di-tosylate salt (pH 1): better solubility

CCc1nc2ccc(Cl)cn2c1C(=O)NCc1ccc(N2CCC(c3ccc(OC(F)(F)F)cc3)CC2)cc1.Cl [Type 56]
solubility (pH 1 buffer, room temperature): ~ 5.58 mg/mL

CCc1nc2ccc(Cl)cn2c1C(=O)NCc1ccc(N2CCC(c3ccc(OC(F)(F)F)cc3)CC2)cc1.Cc1ccc(S(=O)(=O)O)cc1.Cc1ccc(S(=O)(=O)O)cc1 [Pat A]
Aq. Sol ([1]; approximate values by aliquot addition on unbuffered water): <0.38 mg/mL | Aq. Sol ([1]; approximate values measured by aliquot addition in unbuffered water): <0.38 mg/mL | RH stress (20C/75RH) [2]: stable | RH stress (20C/75RH) ([2]; 20C): stable

CCc1nc2ccc(Cl)cn2c1C(=O)NCc1ccc(N2CCC(c3ccc(OC(F)(F)F)cc3)CC2)cc1.O=P(O)(O)O [phosphate salt, 6-chloro-2-ethyl-N-(4-(4-(4-(trifluoromethoxy)phenyl)piperidine-1-yl)benzyl)imidazo[1,2-a]pyridine-3-carboxamide mono-phosphate]
solid form after slurrying in buffer (XRPD) (all buffers tested (pH 1, 4.5, 6.8, 7.5)): not stable | solubility in comparison to the di-tosylate salt (low pH, especially around pH1): better solubility | solid form after slurrying in buffer (XRPD) (pH 1 buffer, listed as Phosphate salt, mono-phosphate): converted to HCl Type 56 | solid form after slurrying in buffer (XRPD) (pH 1 buffer, mono-phosphate): converted to a new HCl salt, Type 56 | solid form after slurrying in buffer (XRPD) (pH 4.5 and above): converted to freebase

CCc1nc2ccc(Cl)cn2c1C(=O)NCc1ccc(N2CCC(c3ccc(OC(F)(F)F)cc3)CC2)cc1 [Type 28]
solubility (pH 4.5 and above): < 0.00037 mg/mL

CCc1nc2ccc(Cl)cn2c1C(=O)NCc1ccc(N2CCC(c3ccc(OC(F)(F)F)cc3)CC2)cc1.Cl [HCl salt, Type 36]
XRPD of solid isolated after pH solubility experiment (pH 1 buffer, pull time 24 hrs): T56 HCl salt crystalline | HPLC concentration based on avg std [6]: 0.000323 mg/mL and 0.000307 mg/mL | XRPD of solid isolated after pH solubility experiment [6]: T56 HCl salt crystalline | HPLC concentration based on avg std [7]: 0.000285 mg/mL and 0.000277 mg/mL | XRPD of solid isolated after pH solubility experiment [7]: T56 HCl salt crystalline | HPLC concentration based on avg std [8]: 3.28e-05 mg/mL and 3.57e-05 mg/mL | XRPD of solid isolated after pH solubility experiment [8]: T56 HCl salt crystalline

CCc1nc2ccc(Cl)cn2c1C(=O)NCc1ccc(N2CCC(c3ccc(OC(F)(F)F)cc3)CC2)cc1.Cc1ccc(S(=O)(=O)O)cc1.Cc1ccc(S(=O)(=O)O)cc1 [Form C]
crystalline form after exposure to 100% RH [3]: maintains its crystalline form; also recorded: crystal structure does not change | water absorption (DVS) (DVS water absorption): less than 0.3%

CCc1nc2ccc(Cl)cn2c1C(=O)NCc1ccc(N2CCC(c3ccc(OC(F)(F)F)cc3)CC2)cc1.Cc1ccc(S(=O)(=O)O)cc1 [pTSA salt, Type 20]
HPLC concentration based on avg std (pH 1 buffer, pull time 24 hrs): 0.33 mg/mL and 0.32 mg/mL | XRPD of solid isolated after pH solubility experiment (pH 1 buffer, pull time 24 hrs): p-TSA salt T20 crystalline | HPLC concentration based on avg std [6]: 0.000366 mg/mL and 0.000333 mg/mL | XRPD of solid isolated after pH solubility experiment [6]: Type 28 disordered | HPLC concentration based on avg std [7]: 0.000312 mg/mL and 0.000307 mg/mL | XRPD of solid isolated after pH solubility experiment [7]: Type 28 disordered | XRPD of solid isolated after pH solubility experiment [8]: Type 28 disordered

CCc1nc2ccc(Cl)cn2c1C(=O)NCc1ccc(N2CCC(c3ccc(OC(F)(F)F)cc3)CC2)cc1.Cc1ccc(S(=O)(=O)O)cc1.Cc1ccc(S(=O)(=O)O)cc1 [6-chloro-2-ethyl-N-(4-(4-(4-(trifluoromethoxy)phenyl)piperidine-1-yl)benzyl)imidazo[1,2-a]pyridine-3-carboxamide ditosylate]
long-term storage stability [4]: stable | stability under accelerated conditions [5]: stable
